Patent US8796286B2, “Agent for treatment of liver diseases containing pyrazolopyrimidinone derivative” (Mezzion Pharma Co., Ltd., priority 2005, dated 2014)
Like-named read-outs stand apart in the source and are kept apart here.

How the values were obtained:
[1] = Solubility (physicochemical properties)
[2] = pKa (physicochemical properties)
[3] = In vivo pharmacokinetics in portal hypertension patients (plasma HPLC); settings: human
Description: Nine volunteers among portal hypertension patients who were in the criterion of age from 19-45 and weight over 45 kg (within 15% deviation of ideal body weight) participated in experiments. They were all volunteers who agreed in writing to join the experiments and were trustworthy, cooperative and willing to follow the rules.
A double blind method was used for the experiments. At 8-9 am on the test day, test medicines were given with 240 mL of water to volunteers. For 4 hours from the administration, they were fasted, and lunch was provided 4 hours later and dinner was provided 9 hours later. Blood samples were taken before the administration on the test day and at the 0.5th, 1st, 1.5th, 2nd, 2.5th, 3rd, 4th, 5th, 6th, 8th, 12th, 24th and 32nd hour after the administration. Blood plasma was isolated, followed by HPLC. 100 μL of 0.1 M sodium carbonate and 1.0 mL of ethyl ether were added to 0.5 mL of blood plasma, then mixed well for 1 minute, followed by centrifugation at 12,000 rpm for 3 minutes. Supernatant was obtained and organic solvent was volatilized using speed vac. Then, 100 μL of moving phase was added, followed by stirring.

[4] = tested on: collagen synthesis in liver, hepatic fibrosis model; assay: Liver protective effect in DMN-induced hepatic fibrosis animal model (collagen type I/III immunohistological staining); type: in vivo, Sprague Dawley rat; settings: 10 mg/kg/day oral for 2 weeks; for collagen synthesis in hepatic portal veins and around the portal veins (immunohistology): DMN 10 mg/kg i.p. three times per week for 2 weeks, versus solvent control
Description: The following experiments were performed to investigate the in vivo collagen synthesis inhibitory effect of pyrazolopyrimidinone derivative of the present invention. Sprague Dawley white female rats (having approximately 300 g in weight) were divided into 4 groups (5 rats per group), and hepatic fibrosis was induced in experimental groups except the wild type control group (Toxicology, 2001). DMN (dimethylnitrosamine) was injected into the abdominal cavity in a dose of 10 mg/kg serially for 2 weeks with a dose frequency of three times per week. […] Only triazole buffer was administered to the solvent control group. Two weeks later, the liver was extracted, fixed in 10% neutral formalin, embedded in paraffin and sliced by […]. Each section was treated with xylene to eliminate paraffin, followed by treatment with alcohol and 0.1% hydrogen peroxide (H2O2). After treatment with PBS, the sections were treated with polyclonal antiserum (Chemicon) against collagen type I diluted by 1:500 and polyclonal antiserum (BioGenesis) against collagen type III diluted by 1:100, at 37° C. for one hour. After washing, samples were treated with 1:200 diluted biotin-conjugated goat anti-rabbit IgG. Immunohistological staining was performed by reacting the samples with avidin-biotin complex (Vector Laboratories), then antigen-antibody complex was marked with 3-amino-9-ethylcarbazole (AEC), whose image was taken by optical microscope now shown in FIG. 1-4. The control group was treated with non-immunized horse serum instead of primary antibody.

[5] = tested on: collagen synthesis in hepatic stellate cells; assay: Inhibitory effect on collagen synthesis using hepatic stellate cells (RT-PCR for collagen); type: cell-based, Sprague Dawley rat; settings: for IC50: Rattus norvegicus, hepatic stellate cells pre-treated with 25 ng/mL PDGF for 24 hours, collagen RT-PCR relative to beta-actin, mean ± standard deviation
Description: The following experiments were performed to investigate the inhibition effect of pyrazolopyrimidinone derivative of the present invention on collagen synthesis. Hepatic stellate cells were isolated from Sprague Dawley white male rats (about 300 g in weight, n=10). First, ketamin was injected into the abdominal cavity to anesthetize the rats. The abdomen was opened and heparin was injected into the portal vein. Then, Hank's buffer solution containing 0.02% pronase and 0.015% collagenase was perfused through the liver for a required time to prepare liver in sections. The extracted liver was crushed on a sterilized petri-dish, then put in a buffer solution containing pronase and DNase, and the crushed liver was then homogenized on a sterilized petri-dish. The prepared sample was filtered with 100 μm nylon mesh in a 50 mL tube. Centrifugation was performed with 50 g for 2 minutes to separate nonparenchymal cells in supernatant. Centrifugation was performed again with 450 g at 4° C. for 10 minutes. The precipitate was floated in a buffer solution containing 25 μg/mL of DNase, followed by centrifugation with 450 g at 4° C. for 10 minutes, which was repeated twice. The final precipitate was floated in 21 mL of buffer solution, which was then mixed with 17 mL of 25% OptiPrep to prepare the final solution of 11.2% OptiPrep (1.058 cm^3). Cell suspension solution mixed with OptiPrep was carefully distributed into four 15 mL tubes containing 3 mL of 17% OptiPrep, to which 1 mL of buffer solution was added. Centrifugation was performed with 1400 g at 4° C. for 17 minutes, and as a result, pure hepatic stellate cells were obtained from the opaque layer between the buffer solution and […]. The separated hepatic stellate cells were suspended in DMEM (Dulbecco's Modified Eagle' Media), followed by washing. The cells were suspended again in DMEM supplemented with 10% FBS (Fetal Bovine Serum) and antibiotics, then inoculated into a culture vessel, which was cultured in a 37° C. 5% CO2 incubator. The culture medium was first replaced 24 hours later, and then replaced every 48 hours for sub-culture. Hepatic stellate cells sub-cultured 8 times were grouped by 2×10^5, which were pre-treated with 25 ng/mL of PDGF (Platelet Derived Growth Factor) for 24 hours. […] The total RNA was extracted and RT-PCR (Reverse Transcriptase Polymerase Chain Reaction) for collagen was performed. Based on the relative concentration to beta-actin, a target material was compared with other test samples. In order to determine the inhibitory effect of a target sample on collagen synthesis, inhibitory concentration 50% (IC50) was investigated, and the result is shown in Table 1.

[6] = tested on: portal hypertension model; assay: Portal hypertension animal model (bile duct ligation): portal blood pressure, portal vein diameter, blood flow; type: in vivo, beagle dog; settings: 10 mg/kg/day oral for two weeks; for Portal vein diameter / Blood flow rate (portal vein) / Portal blood pressure: bile duct ligated beagle dogs, mean ± standard deviation; for Portal vein diameter: Doppler ultrasonography
Description: The following experiments were performed to investigate the effect of pyrazolopyrimidinone derivative on portal hypertension. 12 beagle dogs weighing about 10 kg were divided into four groups (3 dogs were chosen per group randomly), and bile duct ligation was performed on them. […] The animals were fasted for 4 hours, then pentobarbital was intravenously injected to anesthetize them. A tube was inserted through the mesenteric vein to the portal vein to measure portal blood pressure. Doppler ultrasonography was also performed to measure the diameter of portal vein. Blood flow through the portal vein was measured by using the following mathematical chemistry FIG. 1, and the result is shown in Table 2. [formula]

[7] = tested on: experimental cirrhosis models; settings: dose-dependently; cited from earlier work

Compound	collagen synthesis in hepatic portal veins and around the portal veins (immunohistology) [4]	IC50 [5] [nM]	blood flow rate through portal vein increase compared with solvent treated group [6] [%]	portal blood pressure decrease compared with solvent treated control group [6] [%]	Portal vein diameter [6] [mm]	Blood flow rate (portal vein) [6] [mL/min]	Portal blood pressure [6] [kPa]	other results
CCCOc1ccc(S(=O)(=O)NCCC2CCCN2C)cc1-c1nc2c(CCC)nn(C)c2c(=O)[nH]1 (stereo not shown) [Pyrazolopyrimidinone derivative, 5-[2-propyloxy-5-(1-methyl-2-pyrrolidinylethyl amidosulfonyl)phenyl]-1-methyl-3-propyl-1,6-dihydro-7H-pyrazolo(4,3-d)pyrimidin-7-one]	remarkably inhibited	0.8 ± 0.2	59.9	21	7.70 ± 0.26	932.31 ± 89.83	2.50 ± 0.20	solubility in acetic acid, methanol and chloroform ([1]; acetic acid, methanol and chloroform): soluble; solubility in water ([1]; water): insoluble; pKa1 [2]: 6.5; pKa2 [2]: 12.5; half-life, fold longer than vardenafil ([3]; in vivo): two fold; half-life ([3]; in vivo, po, 100 mg): 906 ± 210 min; inhibition of collagen synthesis compared with the sildenafil treated group ([4]; DMN rats): greater than that in the sildenafil treated group; collagen synthesis inhibitory effect, times higher than sildenafil ([5]; ratio of IC50 versus sildenafil): 16 times; collagen synthesis inhibitory effect, times higher than vardenafil ([5]; ratio of IC50 versus vardenafil): 10 times; collagen synthesis inhibitory effect, times as excellent as other conventional PDE 5 inhibitors ([5]; versus other conventional PDE 5 inhibitors (Table 1)): 10-16 times
CCCc1nn(C)c2c(=O)[nH]c(-c3cc(S(=O)(=O)N4CCN(C)CC4)ccc3OCC)nc12 [Sildenafil, sildenafil]	remarkably inhibited	13.1 ± 2.3	29.1	7	7.47 ± 0.21	754.47 ± 80.24	2.93 ± 0.25	half-life ([3]; plasma, patients with portal hypertension, 50 mg oral, mean ± standard deviation, read-out: Half-life (converted)): 270 ± 72 min; Portal blood pressure [7]: increases; blood flow through mesenteria [7]: increases
CCCc1nc(C)c2c(=O)[nH]c(-c3cc(S(=O)(=O)N4CCN(CC)CC4)ccc3OCC)nn12 [Vardenafil, vardenafil]	–	7.8 ± 1.7	24.8	9	7.43 ± 0.21	729.29 ± 83.23	2.87 ± 0.25	half-life ([3]; plasma, patients with portal hypertension, 10 mg oral, mean ± standard deviation, read-out: Half-life (converted)): 378 ± 126 min
